Experimental data reported in US6737383B1, “Herbicidal oxadiazolidines” (priority 1999, dated 2004).

Legend:
crabgrass = test: Test B pre/postemergence crabgrass; format: in vivo, Digitaria sanguinalis
Outline: (§1)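 Test chemicals in a non-phytotoxic solvent mixture with surfactant were sprayed preemergence onto planted seeds and postemergence onto plants 2 to 18 cm tall (1- to 4-leaf stage). After twelve to sixteen days in a greenhouse, injury was visually rated against untreated controls from 0 (no effect) to 10 (complete control).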

giant foxtail = test: Test B pre/postemergence giant foxtail; format: in vivo, Setaria faberii
Outline: as §1

duck salad = test: Test B flood test duck salad; format: in vivo, Heteranthera limosa; conditions: for Plant response rating, Ducksalad (0 to 10 scale, 0 is no effect, 10 is complete control): Rate 62 g/ha, Pre-emergence; for Plant response rating, Ducksalad (0 to 10 scale, 0 is no effect, 10 is complete control) / Ducksalad plant response rating (0 to 10 scale, 0 is no effect, 10 is complete control): flood test species, visual evaluation after twelve to sixteen days; for Ducksalad plant response rating (0 to 10 scale, 0 is no effect, 10 is complete control): Rate 125 g/ha, under heading Pre-emergence
Outline: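 Plants were grown to the 2-leaf stage before treatment with test chemical, then held in a greenhouse for twelve to sixteen days. Injury was visually rated against untreated controls on a 0–10 scale, where 0 is no effect and 10 is complete control.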

wheat = test: Test B pre/postemergence wheat; format: in vivo, Triticum aestivum
Outline: as §1

[1] = Postemergence, Rate 62 g/ha, scale 0 to 10, 0 is no effect, 10 is complete control
[2] = Postemergence, Rate 125 g/ha, scale of 0 to 10 where 0 is no effect and 10 is complete control
[3] = Postemergence, Rate 250 g/ha, scale of 0 to 10, 0 is no effect, 10 is complete control
[4] = Postemergence, Rate 500 g/ha, scale of 0 to 10 where 0 is no effect and 10 is complete control
[5] = Preemergence, Rate 62 g/ha, scale of 0 to 10 where 0 is no effect and 10 is complete control
[6] = Preemergence, Rate 125 g/ha, scale of 0 to 10 where 0 is no effect and 10 is complete control
[7] = Preemergence, Rate 250 g/ha, scale 0 to 10 (0 no effect, 10 complete control)
[8] = Preemergence, Rate 500 g/ha, scale of 0 to 10 where 0 is no effect and 10 is complete control
[9] = Rate 250 g/ha, Pre-emergence (flood test species), scale 0 to 10, 0 is no effect, 10 is complete control
[10] = Rate 500 g/ha, Pre-emergence section of Table B, 0 to 10 scale (0 no effect, 10 complete control)
[11] = Rate 500 g/ha, Postemergence, scale 0 to 10, 0 is no effect, 10 is complete control

| SMILES | Plant response rating, Crabgrass (crabgrass; [1]) | Crabgrass plant response rating (crabgrass; [3]) | Crabgrass plant response rating (crabgrass; [5]) | Crabgrass plant response rating (crabgrass; [6]) | Plant response rating, Crabgrass (crabgrass; [7]) | Plant response rating, Crabgrass (crabgrass; [8]) | Plant response rating, Giant foxtail (giant foxtail; [1]) | Giant foxtail plant response rating (giant foxtail; [3]) | Giant foxtail plant response rating (giant foxtail; [5]) | Giant foxtail plant response rating (giant foxtail; [6]) | Plant response rating, Giant foxtail (giant foxtail; [7]) | Plant response rating, Giant foxtail (giant foxtail; [8]) | Plant response rating, Ducksalad (0 to 10 scale, 0 is no effect, 10 is complete control) (duck salad) | Ducksalad plant response rating (0 to 10 scale, 0 is no effect, 10 is complete control) (duck salad) | Ducksalad plant response rating (duck salad; [9]) | Ducksalad plant response rating (duck salad; [10]) | Plant response rating, Wheat (wheat; [1]) | Wheat plant response rating (wheat; [5]) | Wheat plant response rating (wheat; [6]) | Plant response rating, Wheat (wheat; [7]) | further results |
| --- | --- | --- | --- | --- | --- | --- | --- | --- | --- | --- | --- | --- | --- | --- | --- | --- | --- | --- | --- | --- | --- |
| CCCCCn1c(=O)on(C(=O)N(c2ccc(F)cc2F)C(C)C)c1=O [Compound 636] | 3 | 9 | 8 | 9 | 10 | 10 | 2 | 9 | 9 | 10 | 10 | 10 | 0 | 0 | 0 | 0 | 0 | 0 | 0 | 0 | Plant response rating, Crabgrass (crabgrass; [2]): 9; Plant response rating, Crabgrass (crabgrass; [4]): 9; Plant response rating, Giant foxtail (giant foxtail; [2]): 7; Plant response rating, Giant foxtail (giant foxtail; [4]): 9; Plant response rating, Wheat (wheat; [2]): 0; Wheat plant response rating (wheat; [3]): 0; Plant response rating, Wheat (wheat; [8]): 2 |
| CC(C)N(C(=O)n1oc(=O)n(CC(=O)C2CCC2)c1=O)c1ccc(Cl)cc1 [Compound 643] | 0 | 0 | 0 | 3 | 9 | 10 | 0 | 0 | 6 | 8 | 10 | 10 | 0 | 0 | 0 | 0 | 0 | 0 | 0 | 0 | Crabgrass plant response rating (crabgrass; [2]): 0; Plant response rating, Crabgrass (crabgrass; [4]): 6; Giant foxtail plant response rating (giant foxtail; [2]): 0; Plant response rating, Giant foxtail (giant foxtail; [4]): 0; Wheat plant response rating (wheat; [2]): 0; Wheat plant response rating (wheat; [3]): 0; Plant response rating, Wheat (wheat; [8]): 0 |
| CC[C@@H](C)n1c(=O)on(C(=O)N(c2ccc(Cl)cc2)C(C)C)c1=O [Compound 665] | 1 | 9 | 6 | 8 | 9 | 10 | 2 | 8 | 9 | 10 | 10 | 10 | 0 | 0 | 0 | 0 | 0 | 0 | 3 | 4 | Crabgrass plant response rating (crabgrass; [2]): 7; Crabgrass plant response rating (crabgrass; [11]): 9; Giant foxtail plant response rating (giant foxtail; [2]): 4; Giant foxtail plant response rating (giant foxtail; [11]): 9; Wheat plant response rating (wheat; [2]): 0; Plant response rating, Wheat (wheat; [8]): 4; Wheat plant response rating (wheat; [11]): 4 |
| CC[C@@H](C)n1c(=O)on(C(=O)N(c2ccc(F)cc2F)C(C)C)c1=O [Compound 667] | 6 | 9 | 8 | 8 | 10 | 10 | 5 | 9 | 10 | 10 | 10 | 10 | 0 | 0 | 0 | 0 | 0 | 2 | 2 | 5 | Crabgrass plant response rating (crabgrass; [2]): 8; Crabgrass plant response rating (crabgrass; [11]): 10; Giant foxtail plant response rating (giant foxtail; [2]): 9; Giant foxtail plant response rating (giant foxtail; [11]): 9; Wheat plant response rating (wheat; [2]): 0; Plant response rating, Wheat (wheat; [8]): 6; Wheat plant response rating (wheat; [11]): 5 |
